Here are results for 52 compounds from US8063221B2, “Aminoquinolones as GSK-3 inhibitors” (Kyorin Pharmaceutical Co., Ltd., priority 2006, dated 2011).

The assay has as its target T1, recombinant full-length human GSK3β (Homo sapiens, UniProt P49841).
T1 construct: recombinant full-length human GSK3β (Upstate); purchased Upstate
The assay is described as follows: Luciferase-coupled cell-free GSK3β kinase assay. Type of assay: biochemical. The protocol:
For compounds in Tables 1 and 2, IC50 (μM) for GSK3β enzyme in cell free assay is provided as follows:
Luciferase-Coupled Protein Kinase Assays
All coupled-luciferase assays are performed by using a brief incubation with firefly luciferase (Promega) after completion of the kinase assay. KinaseGlo Plus is used for reading kinase reactions with ATP>10 μM, KinaseGlo for ATP <10 μM. The assay volume in a 384-well plate for the kinase reaction is 30 microliters.
10-25 ng of recombinant full-length human GSK3β (Upstate) is incubated in the presence or absence of compound at varying concentrations for 1 hour at 30 degrees Celsius in 20 mM MOPS, pH 7.0, 10 mM magnesium acetate, 0.2 mM EDTA, 2 mM EGTA, 30 mM magnesium chloride, 62.5 μM phospho-glycogen synthase peptide-2, 5 μM ATP, 10 mM β-glycerol phosphate, 1 mM sodium orthovanadate and 1 mM dithiothreitol. Proceed to KinaseGlo luciferase reaction (see below).
Following the completion of the kinase reaction an equal volume of KinaseGlo or KinaseGlo Plus luciferase reagent (Promega) is added and the luminescence read using a luminescence plate reader within 5-10 minutes. Compound activity is expressed as % inhibition relative to maximal inhibition observed at the maximal dose and IC50 values then calculated using curve fitting software (GraphPad Prizm).

T1 sequence (P49841 whole entry): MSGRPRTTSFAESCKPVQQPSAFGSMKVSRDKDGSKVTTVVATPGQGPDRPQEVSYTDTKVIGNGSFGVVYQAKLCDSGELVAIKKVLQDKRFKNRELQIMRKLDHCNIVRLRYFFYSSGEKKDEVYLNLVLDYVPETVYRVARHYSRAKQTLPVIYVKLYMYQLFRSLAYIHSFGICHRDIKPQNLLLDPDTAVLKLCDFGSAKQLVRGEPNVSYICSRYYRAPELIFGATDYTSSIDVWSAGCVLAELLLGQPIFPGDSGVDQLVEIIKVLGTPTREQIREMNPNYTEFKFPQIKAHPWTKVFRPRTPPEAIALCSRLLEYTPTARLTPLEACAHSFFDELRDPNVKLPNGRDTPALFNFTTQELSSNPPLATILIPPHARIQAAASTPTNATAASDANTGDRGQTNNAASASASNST

Consider `COc1ccc(OCCNc2c(F)c(N)c3c(=O)c(C(=O)O)cn4c3c2OC[C@@H]4C)cc1` [Compound 87], for which the half-inhibitory concentration (IC50) – broadly, the concentration needed to halve the response being measured – (Table 2) is 100 to 500 nM.

For `C[C@H]1COc2c(NCCN3CCC(c4ccccc4)C3)c(F)c(N)c3c(=O)c(C(=O)O)cn1c23` (stereo partly shown) [Example 91], the IC50 (Table 2) was over 1000 nM.

On to `Cc1nn(C)c(C)c1CCCNc1c(F)c(N)c2c(=O)c(C(=O)O)cn3c2c1OC[C@@H]3C` [Example 92], for which, where the note is “Table 2”, the IC50 was under 100 nM.

For the compound `Cc1cc(NCCNc2c(F)c(N)c3c(=O)c(C(=O)O)cn4c3c2OC[C@@H]4C)c2ccccc2n1` [Example 94], the half-inhibitory concentration (IC50) (Table 2) is under 100 nM.

On to `C[C@H]1COc2c(NCCOc3ccc(-c4ccccc4)cc3)c(F)c(N)c3c(=O)c(C(=O)O)cn1c23` [Example 96], for which, where the note is “Table 2”, the IC50 was 500 to 1000 nM.

With `C[C@H]1COc2c(NCCC(c3ccccc3)c3ccc4c(c3)OCO4)c(F)c(N)c3c(=O)c(C(=O)O)cn1c23` (stereo partly shown) [Example 97], the IC50 (Table 2) lay within 100 to 500 nM.

With `CCOc1ccc(CCCNc2c(F)c(N)c3c(=O)c(C(=O)O)cn4c3c2OC[C@@H]4C)cc1OCC` [Example 98], the 50% inhibitory concentration (IC50) (Table 2) is under 100 nM.

On to `C[C@H]1COc2c(NCCOc3ccccc3)c(F)c(N)c3c(=O)c(C(=O)O)cn1c23` [Example 99], for which the half-maximal inhibitory concentration (IC50) (Table 2) was under 100 nM.

Turning to `Cc1ccc2nc(C)cc(NCCNc3c(F)c(N)c4c(=O)c(C(=O)O)cn5c4c3OC[C@@H]5C)c2c1` [Example 100], the IC50 (Table 2) was under 100 nM.

With `C[C@H]1COc2c(NCCCc3ccc(Cl)cc3)c(F)c(N)c3c(=O)c(C(=O)O)cn1c23` [Example 102], the concentration for half-maximal inhibition (IC50) (Table 2) is under 100 nM.

In the case of `C[C@H]1COc2c(NCCC3CCCCC3)c(F)c(N)c3c(=O)c(C(=O)O)cn1c23` [Example 104], the IC50 (Table 2) was under 100 nM.

As to `C[C@H]1COc2c(NCCOc3ccc(C(=O)O)cc3)c(F)c(N)c3c(=O)c(C(=O)O)cn1c23` [Example 105], for the setting “Table 2”, the IC50 is under 100 nM.

With `C[C@H]1COc2c(NCCCc3ccccc3)c(F)c(N)c3c(=O)c(C(N)=O)cn1c23` [Example 106], for the setting “Table 2”, the IC50 is under 100 nM.

In the case of `C[C@H]1COc2c(NCCCc3ccccc3)c(F)c(N)c3c(=O)c(C#N)cn1c23` [Example 108], the half-inhibitory concentration (IC50) (Table 2) is under 100 nM.

On to `C[C@H]1COc2c(NCCNc3ccccn3)c(F)c(N)c3c(=O)c(C#N)cn1c23` [Example 110], for which the IC50 (Table 2) was under 100 nM.

On to `Cc1n[nH]c(SCCNc2c(F)c(N)c3c(=O)c(C(=O)O)cn4c3c2OC[C@@H]4C)n1` [Example 111], for which the half-maximal inhibitory concentration (IC50) (Table 2) is under 100 nM.

As to `C[C@H]1COc2c(NCCSc3c[nH]c4ccccc34)c(F)c(N)c3c(=O)c(C(=O)O)cn1c23` [Example 116], the IC50 (Table 2) is under 100 nM.

On to `C[C@H]1COc2c(NCCCNC(=O)c3ccccn3)c(F)c(N)c3c(=O)c(C(=O)O)cn1c23` [Example 117], for which, for the setting “Table 2”, the 50% inhibitory concentration (IC50) was under 100 nM.

With `C[C@H]1COc2c(NCCCNC(=O)c3cccnc3)c(F)c(N)c3c(=O)c(C(=O)O)cn1c23` [Example 118], the IC50 (Table 2) was under 100 nM.

Turning to `Nc1ccc(CCNc2c(F)c(N)c3c(=O)c(C(=O)O)cn(C4CC4)c3c2F)cc1` [compound 2], the 50% inhibitory concentration (IC50) (Table 1) fell in the range of 500 to 1000 nM.

As for `Nc1c(F)c(NCCc2ccc(Cl)cc2)c(F)c2c1c(=O)c(C(=O)O)cn2C1CC1` [compound 4], the half-maximal inhibitory concentration (IC50) (Table 1) lay within 100 to 500 nM.

In the case of `CC1COc2c(NCCNc3cccc4ccccc34)c(F)c(N)c3c(=O)c(C(=O)O)cn1c23` (stereo not shown) [compound 7], under “Table 2”, the 50% inhibitory concentration (IC50) was under 100 nM.

Consider `Nc1c(F)c(NCc2ccc(Cl)cc2)c(F)c2c1c(=O)c(C(=O)O)cn2C1CC1` [compound 8], for which, where the note is “Table 1”, the concentration for half-maximal inhibition (IC50) was in the range of 500 to 1000 nM.

Regarding `Nc1c(F)c(NCCc2ccc(Cl)cc2)c(F)c2c1c(=O)ccn2C1CC1` [compound 9], the half-maximal inhibitory concentration (IC50) (Table 1) lay within 500 to 1000 nM.

Regarding `Nc1c(F)c(NCCCn2cc[n+]3ccccc23)c2c3c1c(=O)c(C(=O)O)cn3CCO2` [compound 10], the concentration for half-maximal inhibition (IC50) (Table 2) is 500 to 1000 nM.

On to `Nc1c(F)c(NCCNc2ccccn2)c2c3c1c(=O)c(C(=O)O)cn3CCCO2` [compound 11], for which, for the setting “Table 2”, the half-inhibitory concentration (IC50) was over 1000 nM.

Take `Nc1c(F)c(NCc2ccc(Cl)cc2)c(F)c2c1c(=O)ccn2C1CC1` [compound 14]: for the setting “Table 1”, the half-inhibitory concentration (IC50) was over 1000 nM.

For `Nc1c(F)c(NCCc2ccc(Cl)cc2Cl)c(F)c2c1c(=O)c(C(=O)O)cn2C1CC1` [compound 18], the IC50 (Table 1) fell in the range of 500 to 1000 nM.

For `C[C@H]1COc2c(NCCc3ccncc3)c(F)c(N)c3c(=O)c(C(=O)O)cn1c23` [compound 22], the IC50 (Table 2) was 100 to 500 nM.

Take `Nc1c(F)c(N2CCN(Cc3ccccc3)CC2)c(F)c2c1c(=O)c(C(=O)O)cn2C1CC1` [compound 22]: the IC50 (Table 1) was over 1000 nM.

`Nc1c(F)c(NCCc2ccc(Cl)cc2Cl)c(F)c2c1c(=O)ccn2C1CC1` [compound 24]: the 50% inhibitory concentration (IC50) (Table 1) is over 1000 nM.

Take `CC(C)OCCCNc1c(F)c(N)c2c(=O)ccn(C3CC3)c2c1F` [compound 25]: the IC50 (Table 1) is over 1000 nM.

Take `Nc1c(F)c(NCCc2ccc(-c3ccccc3)cc2)c(F)c2c1c(=O)ccn2C1CC1` [compound 27]: for the setting “Table 1”, the IC50 is over 1000 nM.

On to `CC1(C)COc2c(NCCCOc3ccccc3)c(F)c(N)c3c(=O)c(C(=O)O)cn(c23)C1` [compound 28], for which the IC50 (Table 2) was 100 to 500 nM.

As for `Nc1c(F)c(NCCNC(=O)c2ccccc2)c(F)c2c1c(=O)c(C(=O)O)cn2C1CC1` [compound 30], for the setting “Table 1”, the half-inhibitory concentration (IC50) is 500 to 1000 nM.

As to `Nc1c(F)c(NCCc2ccc(F)cc2F)c(F)c2c1c(=O)ccn2C1CC1` [compound 31], the half-inhibitory concentration (IC50) (Table 1) is over 1000 nM.

Turning to `Nc1c(F)c(NCCc2ccccc2)c(F)c2c1c(=O)ccn2C1CC1` [compound 32], the concentration for half-maximal inhibition (IC50) (Table 1) was 500 to 1000 nM.

In the case of `Nc1c(F)c(NCCNC(=O)c2ccccc2)c(F)c2c1c(=O)ccn2C1CC1` [compound 33], the half-maximal inhibitory concentration (IC50) (Table 1) lay within 500 to 1000 nM.

As for `Nc1c(F)c(NCCNC(=O)c2ccc(F)cc2)c(F)c2c1c(=O)c(C(=O)O)cn2C1CC1` [compound 34], for the setting “Table 1”, the half-maximal inhibitory concentration (IC50) lay in the range of 100 to 500 nM.

In the case of `CC1(C)COc2c(NCCNc3cccc(F)n3)c(F)c(N)c3c(=O)c(C(=O)O)cn1c23` [compound 35], under “Table 2”, the concentration for half-maximal inhibition (IC50) is under 100 nM.

Consider `Nc1c(F)c(NCCNC(=O)c2ccc(F)cc2)c(F)c2c1c(=O)ccn2C1CC1` [compound 35], for which the IC50 (Table 1) lay in the range of 100 to 500 nM.

For the compound `Nc1cc(NCCNc2ccccn2)cc2c1c(=O)c(C(=O)O)cn2C1CC1` [compound 36], the IC50 (Table 1) was over 1000 nM.

As to `N#Cc1ccc(NCCNc2c(F)c(N)c3c(=O)c(C(=O)O)cn(C4CC4)c3c2F)nc1` [compound 37], the half-maximal inhibitory concentration (IC50) (Table 1) was in the range of 100 to 500 nM.

Regarding `Nc1c(F)c(NCCNC(=O)c2ccccn2)c(F)c2c1c(=O)c(C(=O)O)cn2C1CC1` [compound 38], the IC50 (Table 1) lay within 500 to 1000 nM.

As for `Nc1c(F)c(NCCNC(=O)c2ccc3ccccc3n2)c(F)c2c1c(=O)c(C(=O)O)cn2C1CC1` [compound 39], for the setting “Table 1”, the half-maximal inhibitory concentration (IC50) fell in the range of 500 to 1000 nM.

Turning to `N#Cc1ccc(NCCNc2c(F)c(N)c3c(=O)ccn(C4CC4)c3c2F)nc1` [compound 40], for the setting “Table 1”, the IC50 was in the range of 100 to 500 nM.

With `Nc1c(F)c(NCCNC(=O)c2ccncc2)c(F)c2c1c(=O)c(C(=O)O)cn2C1CC1` [compound 41], the concentration for half-maximal inhibition (IC50) (Table 1) fell in the range of 500 to 1000 nM.

As to `Nc1c(F)c(NCCn2ccnc2)c(F)c2c1c(=O)c(C(=O)O)cn2C1CC1` [compound 42], the half-inhibitory concentration (IC50) (Table 1) is over 1000 nM.

Regarding `Nc1c(F)c(NCCn2cncn2)c(F)c2c1c(=O)c(C(=O)O)cn2C1CC1` [compound 44], the concentration for half-maximal inhibition (IC50) (Table 1) was over 1000 nM.

In the case of `Nc1c(F)c(NCCCn2cnc3ccccc32)c2c3c1c(=O)c(C(=O)O)cn3CCCO2` [compound 45], the half-maximal inhibitory concentration (IC50) (Table 2) fell in the range of 100 to 500 nM.

Take `Nc1cc(NCCCc2ccccc2)cc2c1c(=O)c(C(=O)O)cn2C1CC1` [compound 45]: under “Table 1”, the IC50 was over 1000 nM.

In the case of `Nc1c(F)c(NCCCc2ccccc2)c2c3c1c(=O)c(C(=O)O)cn3CCCO2` [compound 46], for the setting “Table 2”, the IC50 is 100 to 500 nM.
